# According to patent US8158621B2, “Methods of treating or preventing autoimmune diseases with 2,4-pyrimidinediamine compounds” (Rigel Pharmaceuticals, Inc., priority 2002, dated 2012):
# System: Human Jurkat T-cells (clone N)
# Assay: Jurkat T-cell activation (anti-TCR, CD69 upregulation)
# Format: cell-based
# Conditions: not given
# Method in brief: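 Jurkat cells in RPMI + 5% FBS preincubated with compound 1 h at 37 °C, then stimulated with anti-TCR C305 at 500 ng/ml for 20 h. CD69 surface expression stained with anti-CD69-APC and read by flow cytometry; IC50 versus solvent-only control.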
row,IC50 [µM],Structure (SMILES)
1,> 10,Fc1cnc(Nc2ccc(OCc3nc(-c4ccccc4)no3)cc2)nc1Nc1ccc2c(c1)OCCO2 [Compound R935136]
2,> 10,CCOC(=O)COc1ccc(Nc2nc(Cl)cc(NCC(=O)OC)n2)cc1 [Compound R926555]
3,1.55,CNC(=O)COc1cccc(Nc2ncc(F)c(Nc3ccc4c(c3)C(OC(C)=O)CCO4)n2)c1 (stereo not shown) [Compound R950382]
4,> 10,O=C(COc1ccc(Nc2ncc(F)c(Nc3ccc(OCC(=O)N4CCCC4)cc3)n2)cc1)N1CCCC1 [Compound R926563]
5,10.2,CNC(=O)COc1cc(Nc2ncc(F)c(Nc3ccc(C)c(OCC(=O)NC)c3)n2)ccc1C [Compound R926760]
6,12.5,CNC(=O)COc1cccc(Nc2nc(Nc3ccc4c(c3)OCCO4)ncc2F)c1 [Compound R926776]
7,> 10,N#Cc1cnc(Nc2ccc(OCC(=O)NCC(O)CO)cc2)nc1Nc1cccc(O)c1 (stereo not shown) [Compound R925846]
8,> 10,CCOC(=O)CNC(=O)Nc1c(Nc2ccc(OCC(=O)OCC)cc2)nc(Nc2ccc(OCC(=O)OCC)cc2)nc1C(=O)OCC [Compound R926587]
9,11.4,CNC(=O)COc1cccc(Nc2ncc(F)c(Nc3ccc(OC)c(CO)c3)n2)c1 [Compound R950386]
10,23.1,O=C(c1cc2cc(Nc3ncc(F)c(Nc4ccc5oc(C(=O)N6CCOCC6)cc5c4)n3)ccc2o1)N1CCOCC1 [Compound R950172]
11,5.4,CNC(=O)COc1cccc(Nc2ncc(F)c(Nc3cnc4c(c3)OC(C)(C)C(=O)N4)n2)c1 [Compound R940345]
12,3.84,Cc1noc(COc2ccc(Nc3ncc(F)c(Nc4ccc5c(c4)OCCO5)n3)cc2)n1 [Compound R935143]
13,> 10,COc1cc(-c2ccccc2)c(C)cc1Nc1ncc(C)c(Nc2cc(C)c(-c3ccccc3)cc2OC)n1 [Compound R935003]
14,> 10,CNC(=O)COc1cccc(Nc2ncc(F)c(Nc3cccc(CN)c3)n2)c1 [Compound R940309]
15,2.7,CNC(=O)COc1cccc(Nc2ncc(F)c(Nc3ccc(O)cc3)n2)c1 [Compound R950347]
16,1.99,O=C(CNc1cccc(Nc2ncc(F)c(Nc3ccc4c(c3)OCCO4)n2)c1)NCCNCc1ccccc1 [Compound R950198]
17,3.23,Cc1ccc(Nc2nc(Cl)ncc2F)cc1CNC(=O)OC(C)(C)C [Compound R926924]
18,8.26,CCOC(=O)COc1cccc(Nc2ncc(F)c(Nc3ccc4c(c3)OCCO4)n2)c1 [Compound R926482]
19,> 10,N#CCOc1ccc(Nc2ncc(F)c(Nc3cccc(O)c3)n2)cc1 [Compound R945070]
20,> 10,Fc1cnc(NCc2ccc3c(c2)OCO3)nc1NCc1ccc2c(c1)OCO2 [Compound R925770]
21,3.86,CCOC(=O)CNc1cccc(Nc2ncc(F)c(Nc3cccc(O)c3)n2)c1 [Compound R950216]
22,2.68,O=C(COc1cccc(Nc2ncc(F)c(Nc3cccc(O)c3)n2)c1)NCCO [Compound R926506]

# Same assay, conditions: Homo sapiens, Jurkat
row,IC50 [µM],Structure (SMILES)
1,> 10,Cc1ccc(N)cc1Nc1ncc(F)c(Nc2cc(N)ccc2C)n1 [Compound R950157]
2,> 10,CC(C)(C)OC(=O)Nc1cccc(Nc2ncc(F)c(Nc3cccc(NC(=O)OC(C)(C)C)c3)n2)c1 [Compound R950108]
3,> 10,O=[N+]([O-])c1cnc(Nc2ccc3c(c2)OC(F)(F)O3)nc1Nc1ccc2c(c1)OC(F)(F)O2 [Compound R940100]
4,1.27,Oc1cccc(Nc2nc(Nc3cccc(-c4cnco4)c3)ncc2F)c1 [Compound R926831]
5,> 10,Fc1cnc(Nc2ccc(-n3cnc(Cl)c3Cl)cc2)nc1Nc1ccc2c(c1)OCCO2 [Compound R926788]
6,> 10,Fc1cnc(NCc2ccccc2)nc1NCc1ccccc1 [Compound R925772]
7,> 10,CCc1ccc(Nc2ncc(F)c(Nc3ccc(CC)cc3)n2)cc1 [Compound R926234]
8,3.99,OCCOc1ccc(Nc2ncc(F)c(Nc3ccc4oc(CO)cc4c3)n2)cc1 [Compound R935174]
9,> 10,O=C(O)c1cc2cc(Nc3ncc(F)c(Nc4ccc5c(c4)OCCO5)n3)ccc2o1 [Compound R926698]
